Assay results: patent US12258358B1, “Ferrocene-substituted organometallic complexes” (THE REGENTS OF THE UNIVERSITY OF CALIFORNIA, priority 2023, dated 2025)

Assay: Cyclic voltammetry (CV) in MeCN electrolyte solution
Assay type: physicochemical
Details: for range over which the redox couples are observed (estimation of the Vcell): symmetric battery configuration assumed
Protocol: Cyclic voltammetry (CV) measurements were used to determine the E1/2 values for 2-OTf and 3-OTf, and those measurements were performed in 0.1 Bu4NBF4 MeCN solution. Five redox couples, corresponding to 8 electron transfer (ET) events were observed over the potential range for 2-OTf and 3-OTf, respectively (FIGS. 3A and 3B). The electrochemistry of 2 is expected to be the same as 2-OTF, although 2-OTf has different solubility. The range of about 1.8 V over which the redox couples are observed provides an estimation of the Vcell for a battery which could be constructed using 2^+ as the analyte, if the battery is constructed with a symmetric configuration where 2 is the analyte for both the cathode and anode.
Cyclic voltammograms (CVs) were recorded in a nitrogen-filled glovebox with a CH Instruments Electrochemical Analyzer Model 620D or 1400 with a glassy carbon working electrode (CH Instruments, nominal surface area of 0.071 cm^2), a platinum wire auxiliary electrode, and an Ag/AgNO3 (0.001M) non-aqueous reference electrode with a Vycor tip. All potentials are referenced to the SCE couple, and ferrocene was used as an external standard where the E1/2 of ferrocene/ferrocenium is +0.40 V vs. SCE in 0.1 M Bu4NPF6 MeCN. Bu4NPF6 was recrystallized from ethanol and placed under vacuum for 72 hours before electrolyte solutions were made. Electrolyte solutions were stored over 3 Å molecular sieves for at least 48 hours before use. Sieves were activated by heating under vacuum at 270° C. for at least 72 hours. UV-Vis spectra were obtained using a 1 cm cuvette using an Agilent 8453 UV-vis spectrophotometer.

[1] = 0.1 Bu4NBF4 MeCN solution, glassy carbon working electrode

Row | Substance | electron transfer (ET) events observed over the potential range (five redox couples) (0.1 Bu4NBF4 MeCN solution) | range over which the redox couples are observed (estimation of the Vcell) | E1/2 of the 3^0/− couple [1] [V vs SCE] | E1/2 of the 3^2+/+ couple [1] | E1/2 of the 3^6+/2+ four-electron couple [1] | E1/2 of the 3^+/0 couple [1] [V vs SCE] | E1/2 of the 3^−/2− couple [1] [V vs SCE]
1 | [(FcI2P^−)2Al)]OTf [Complex 2-OTf] | 8 | about 1.8 V |  |  |  |  | 
2 | [(^EtOFcI2P^−)2Al)](OTf) [Complex 3-OTf] | 8 | 1.9 V | −1.02 | +0.00 V vs SCE | +0.60 V vs SCE | −0.33 | −1.39
